The values that follow come from ChEMBL document CHEMBL1138752, “2-Pyrazolyl-N(6)-substituted adenosine derivatives as high affinity and selective adenosine A(3) receptor agonists” (J Med Chem, 2004).

The structures appear in SMILES notation. pKi: −log10 of the molar value.

The target of test [1] is Adenosine receptors; A1 & A3 (Homo sapiens) (UniProt P30542+P0DMS8). Put plainly: Ratio of binding to adenosine A1 and adenosine A3 receptor. It counts as protein assay.
The target of test [2] is Adenosine receptors; A2a & A3 (Homo sapiens) (UniProt P0DMS8+P29274). Put plainly: Ratio of binding to adenosine A2a and adenosine A3 receptor. In kind it is protein assay.
Test [3] addresses T1, Adenosine receptor A3 (Homo sapiens, UniProt P0DMS8).
T1 sequence (P0DMS8 whole entry): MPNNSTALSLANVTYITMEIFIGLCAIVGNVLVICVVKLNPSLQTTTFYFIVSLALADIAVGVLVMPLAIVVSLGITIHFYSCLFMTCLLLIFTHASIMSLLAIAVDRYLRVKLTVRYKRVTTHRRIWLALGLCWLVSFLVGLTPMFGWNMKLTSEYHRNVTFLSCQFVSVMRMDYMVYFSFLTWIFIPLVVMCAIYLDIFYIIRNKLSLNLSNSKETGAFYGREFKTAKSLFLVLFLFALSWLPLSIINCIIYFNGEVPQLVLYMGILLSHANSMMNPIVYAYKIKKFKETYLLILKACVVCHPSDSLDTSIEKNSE
Put plainly: biochemical.
Description: Displacement of [125I]-AB MECA from recombinant human adenosine A3 receptor expressed in HEK cells

In test [4] the target is T2, Adenosine receptor A1 (Homo sapiens, UniProt P30542).
T2 sequence (P30542 whole entry): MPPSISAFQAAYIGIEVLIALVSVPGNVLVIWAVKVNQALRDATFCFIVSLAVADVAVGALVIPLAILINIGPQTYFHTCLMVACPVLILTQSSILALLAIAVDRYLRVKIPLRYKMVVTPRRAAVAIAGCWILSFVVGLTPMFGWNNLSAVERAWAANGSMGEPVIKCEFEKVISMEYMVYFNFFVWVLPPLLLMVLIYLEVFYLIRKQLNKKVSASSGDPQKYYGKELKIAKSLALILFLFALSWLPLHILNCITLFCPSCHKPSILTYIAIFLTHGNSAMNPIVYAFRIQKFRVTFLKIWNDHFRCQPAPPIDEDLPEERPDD
Put plainly: biochemical.
Description: Displacement of [3H]CCPA from recombinant human adenosine A1 receptor expressed in CHO cells

In test [5] the target is Adenosine receptor A2a (Homo sapiens, UniProt P29274). Put plainly: biochemical.
Adenosine receptor A2a, sequence (P29274 whole entry): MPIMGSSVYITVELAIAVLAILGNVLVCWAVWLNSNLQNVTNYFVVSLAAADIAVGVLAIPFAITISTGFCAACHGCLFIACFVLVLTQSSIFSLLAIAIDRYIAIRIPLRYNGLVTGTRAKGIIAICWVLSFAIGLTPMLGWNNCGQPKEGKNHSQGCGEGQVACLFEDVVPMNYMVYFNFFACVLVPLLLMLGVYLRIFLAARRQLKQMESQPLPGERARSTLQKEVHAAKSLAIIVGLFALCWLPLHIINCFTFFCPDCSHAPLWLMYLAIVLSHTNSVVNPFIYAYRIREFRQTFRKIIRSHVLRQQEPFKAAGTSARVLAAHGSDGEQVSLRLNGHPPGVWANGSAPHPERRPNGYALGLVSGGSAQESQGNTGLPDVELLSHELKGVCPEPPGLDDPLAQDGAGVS
Description: Displacement of [3H]CGS-21680 from recombinant human adenosine A2a receptor expressed in HEK cells

Adenosine receptors; A2a & A3 (Homo sapiens), sequence (P29274 whole entry, looked up, one chain of several): as the sequence (P29274 whole entry) above

What is called pKi is the negative decadic logarithm of the Ki, by convention in mol/L. A lower pKi goes with a high Ki. `COc1ccc(-c2cnn(-c3nc(NCc4cccc(I)c4)c4ncn(C5O[C@H](CO)[C@@H](O)[C@H]5O)c4n3)c2)cc1` (stereo partly specified): the Selectivity was found to be 14 in test [1] and 10 in test [2]. The pKi in test [3] is 6.49; in test [4], 5.35; in test [5], 5.40.
For `CNc1nc(-n2cc(-c3nc4ccccc4o3)cn2)nc2c1ncn2C1O[C@H](CO)[C@@H](O)[C@H]1O` (stereo partly specified), in that order: 1300, 1200, 8.70, 5.59 and 5.60.
In the case of `CCNc1nc(-n2cc(-c3ccc(OC)cc3)cn2)nc2c1ncn2[C@@H]1O[C@H](CO)[C@@H](O)[C@H]1O`, the Selectivity in test [1] was 90; in test [2] it was 100. Moreover, the negative-log Ki (pKi) was 7.39 in test [3] and 5.40 in test [5].
In turn, `CCNC(=O)c1cnn(-c2nc(NC)c3ncn(C4O[C@H](CO)[C@@H](O)[C@H]4O)c3n2)c1` (stereo partly specified) gave a pKi in test [3] of 7.31.
Take `Nc1nc(-c2cnn(Cc3ccccc3)c2)nc2c1ncn2[C@@H]1O[C@H](CO)[C@@H](O)[C@H]1O`: the pKi in test [3] is under 5.00; in test [5], 8.82.
With `CNc1nc(-n2cc(-c3ccc(Cl)cc3)cn2)nc2c1ncn2C1O[C@H](CO)[C@@H](O)[C@H]1O` (stereo partly specified), the Selectivity in test [1] was over 600; in test [2] it was over 500. In addition, the pKi is 8.00 in test [3], under 5.22 in test [4] and under 5.30 in test [5].
Consider `CNc1nc(-n2cc(C(=O)NCc3ccc(Cl)cc3)cn2)nc2c1ncn2C1O[C@H](CO)[C@@H](O)[C@H]1O` (stereo partly specified), for which the Selectivity in test [2] is 25. In addition, the pKi was 6.80 in test [3], 5.70 in test [4] and 5.40 in test [5].
Regarding `CNc1nc(-c2cnn(Cc3ccccc3)c2)nc2c1ncn2C1O[C@H](CO)[C@@H](O)[C@H]1O` (stereo partly specified), the Selectivity in test [1] was 13; in test [2], over 50. Besides, the pKi in test [3] is 7.01; in test [4], 5.89; in test [5], under 5.30.
As for `CNc1nc(-n2cc(-c3ccc(OC)cc3)cn2)nc2c1ncn2[C@@H]1O[C@H](CO)[C@@H](O)[C@H]1O`, the figures for the Selectivity in test [1] and in test [2] were over 200 and over 300, respectively. The pKi was 7.82 in test [3] and under 5.30 in test [5].
Turning to `CCCNc1nc(-n2cc(-c3ccc(OC)cc3)cn2)nc2c1ncn2C1O[C@H](CO)[C@@H](O)[C@H]1O` (stereo partly specified), the Selectivity in test [1] was found to be 45; in test [2], 50. The pKi was 7.19 in test [3], 5.52 in test [4] and 5.48 in test [5].
The molecule `CCCNc1nc(-c2cnn(Cc3ccccc3)c2)nc2c1ncn2C1O[C@H](CO)[C@@H](O)[C@H]1O` (stereo partly specified) gave a pKi in test [3] of 6.83.
For `COc1ccc(-c2cnn(-c3nc(N)c4ncn([C@@H]5O[C@H](CO)[C@@H](O)[C@H]5O)c4n3)c2)cc1`, the pKi in test [3] was under 5.22; in test [5], 6.72.
Turning to `OC[C@H]1OC(n2cnc3c(NCc4cccc(I)c4)nc(-n4cc(-c5nccc6ccccc56)cn4)nc32)[C@H](O)[C@@H]1O` (stereo partly specified), the Selectivity in test [1] was 7; in test [2], under 1. Moreover, the values for the pKi in test [3], in test [4] and in test [5] were 6.96, 6.11 and 7.28, respectively.
Consider `CNC(=O)c1cnn(-c2nc(N)c3ncn([C@@H]4O[C@H](CO)[C@@H](O)[C@H]4O)c3n2)c1` [REGADENOSON ANHYDROUS], for which, in test [3], the pKi is under 5.00.
Turning to `CCNc1nc(-n2cc(-c3ccccn3)cn2)nc2c1ncn2[C@@H]1O[C@H](CO)[C@@H](O)[C@H]1O`, the pKi in test [3] was 6.97; in test [5], 5.74.
`CNc1nc(-n2cc(-c3cccnc3)cn2)nc2c1ncn2C1O[C@H](CO)[C@@H](O)[C@H]1O` (stereo partly specified): the Selectivity was 900 in test [1] and 2000 in test [2]. Besides, the pKi was 8.70 in test [3], 5.74 in test [4] and 5.39 in test [5].
On to `CNc1nc(-n2cc(-c3ccc4ccccc4n3)cn2)nc2c1ncn2C1O[C@H](CO)[C@@H](O)[C@H]1O` (stereo partly specified), for which the Selectivity in test [1] and in test [2] was over 1600 each time. The pKi in test [3] was 8.52; in test [4], under 5.30; in test [5], under 5.30.
In test [5], `CNc1nc(-n2cc(-c3ccccn3)cn2)nc2c1ncn2[C@@H]1O[C@H](CO)[C@@H](O)[C@H]1O` gave a pKi of under 5.30.
With `CNc1nc(-n2cc(-c3ccncc3)cn2)nc2c1ncn2C1O[C@H](CO)[C@@H](O)[C@H]1O` (stereo partly specified), the Selectivity was 600 in test [1] and over 800 in test [2]. The values for the pKi in test [3], in test [4] and in test [5] were 8.22, 5.42 and under 5.30, respectively.
The like results for `OC[C@H]1OC(n2cnc3c(NCc4cccc(I)c4)nc(-n4cc(-c5ccccn5)cn4)nc32)[C@H](O)[C@@H]1O` (stereo partly specified) were, in that order, 24, over 22, 6.77, 5.38 and under 5.41.
On to `CCCNC(=O)c1cnn(-c2nc(NC)c3ncn(C4O[C@H](CO)[C@@H](O)[C@H]4O)c3n2)c1` (stereo partly specified), for which the Selectivity in test [1] and in test [2] was over 200 each time. Besides, the pKi is 7.72 in test [3], under 5.40 in test [4] and under 5.40 in test [5].
As to `CNC(=O)c1cnn(-c2nc(NC)c3ncn([C@@H]4O[C@H](CO)[C@@H](O)[C@H]4O)c3n2)c1`, the Selectivity in test [1] and in test [2] was over 80 throughout. For the same molecule, the values for the pKi in test [3] and in test [5] were 7.14 and under 5.22, respectively.
